Assay results taken from patent publication US9598387B2 (Southern Research Institute, priority 2012, dated 2017).

Key:
[1] = molecular target: human D2-long dopamine receptor (Homo sapiens (Human), UniProt P14416); test: Radioligand binding (125I-IABN competition), D2; details: HEK cell membranes expressing human D2-long
Experimental: (§1) The affinities of the target compounds were determined using radioligand binding experiments. […] Competition curves were modeled for a single site. Data from competition dose-response curves were analyzed using Tablecurve program (Jandel). IC50 values were converted to equilibrium dissociation constants (Ki values) using the Cheng and Prusoff correction.

[2] = molecular target: human D3 dopamine receptor (Homo sapiens (Human), UniProt P35462); test: Radioligand binding (125I-IABN competition), D3; details: for Ki: 125I-IABN competition, HEK cell membranes expressing human D3; for D2/D3 (D3 selectivity ratio, D2 Ki/D3 Ki): calculated D2 Ki/D3 Ki
Experimental: as §1

human D3 dopamine receptor, sequence (P35462 whole entry): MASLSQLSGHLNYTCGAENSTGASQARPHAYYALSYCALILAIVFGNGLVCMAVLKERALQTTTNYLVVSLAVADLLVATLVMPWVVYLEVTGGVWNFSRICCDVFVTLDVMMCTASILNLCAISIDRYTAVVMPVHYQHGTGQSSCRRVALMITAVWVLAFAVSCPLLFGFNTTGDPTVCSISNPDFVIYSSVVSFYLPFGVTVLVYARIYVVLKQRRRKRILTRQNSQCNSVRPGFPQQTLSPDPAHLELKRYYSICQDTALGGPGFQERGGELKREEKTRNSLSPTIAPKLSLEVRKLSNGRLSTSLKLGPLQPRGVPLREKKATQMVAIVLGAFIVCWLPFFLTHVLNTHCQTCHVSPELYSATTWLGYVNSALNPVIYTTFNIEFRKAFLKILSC
human D2-long dopamine receptor, sequence (P14416 whole entry): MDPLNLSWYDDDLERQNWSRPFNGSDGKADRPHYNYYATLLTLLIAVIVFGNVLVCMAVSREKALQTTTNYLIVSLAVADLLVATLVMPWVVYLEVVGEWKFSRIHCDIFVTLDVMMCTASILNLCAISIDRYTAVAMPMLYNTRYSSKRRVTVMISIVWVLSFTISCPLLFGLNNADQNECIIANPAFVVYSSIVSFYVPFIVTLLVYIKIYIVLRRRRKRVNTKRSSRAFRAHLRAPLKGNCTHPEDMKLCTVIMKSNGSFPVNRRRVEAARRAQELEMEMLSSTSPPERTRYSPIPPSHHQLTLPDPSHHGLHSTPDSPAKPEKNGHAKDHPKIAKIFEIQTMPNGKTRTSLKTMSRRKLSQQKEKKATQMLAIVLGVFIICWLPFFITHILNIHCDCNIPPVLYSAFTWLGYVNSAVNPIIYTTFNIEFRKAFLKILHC

| Ki [1] | Ki [2] | D2/D3 (D3 selectivity ratio, D2 Ki/D3 Ki) [2] | Compound |
| --- | --- | --- | --- |
| 167 ± 25.5 nM | 9.8 ± 2 nM | 17 | CN1CCN(C(=O)NCCCCN2CCN(c3cc(C(F)(F)F)nc(C(C)(C)C)n3)CC2)CC1 [Compound 64, N-(4-(4-(2-(tert-Butyl)-6-(trifluoromethyl)pyrimidin-4-yl)piperazin-1-yl)butyl)-4-methylpiperazine-1-carboxamide] |
| 515 ± 59.6 nM | 15.1 ± 2.8 nM | 34 | CC(C)(C)c1nc(C2CC2)cc(N2CCN(CCCCNC(=O)N3CCN(c4ccccc4)CC3)CC2)n1 [Compound 9, N-(4-(4-(2-(tert-Butyl)-6-cyclopropylpyrimidin-4-yl)piperazin-1-yl)butyl)-4-phenylpiperazine-1-carboxamide] |
| 906 ± 169 nM | 31.9 ± 7.2 nM | 28 | Cc1cc(N2CCN(CCCCNC(=O)N3CCN(S(=O)(=O)c4ccccc4)CC3)CC2)nc(C(C)(C)C)n1 [Compound 46, N-(4-(4-(2-(tert-Butyl)-6-methylpyrimidin-4-yl)piperazin-1-yl)butyl)-4-(phenylsulfonyl)piperazine-1-carboxamide] |
| 385 ± 58.5 nM | 16.6 ± 2.2 nM | 23 | CC(C)(C)c1nc(N2CCN(CCCCNC(=O)N3CCN(c4ccccc4C#N)CC3)CC2)cc(C(F)(F)F)n1 [Compound 25, N-(4-(4-(2-(tert-Butyl)-6-(trifluoromethyl)pyrimidin-4-yl)piperazin-1-yl)butyl)-4-(2-cyanophenyl)piperazine-1-carboxamide] |
| 125 ± 26.6 nM | 18 ± 3 nM | 7 | CN1CCC(N2CCN(C(=O)NCCCCN3CCN(c4cc(C(F)(F)F)nc(C(C)(C)C)n4)CC3)CC2)CC1 [Compound 76, N-(4-(4-(2-(tert-Butyl)-6-(trifluoromethyl)pyrimidin-4-yl)piperazin-1-yl)butyl)-4-(1-methylpiperidin-4-yl)piperazine-1-carboxamide] |
| 998 ± 252 nM | 29 ± 2.4 nM | 34 | CC(C)(C)c1nc(N2CCN(CCCCNC(=O)N3CCN(C(=O)c4ccccc4)CC3)CC2)cc(C(F)(F)F)n1 [Compound 37, 4-Benzoyl-N-(4-(4-(2-(tert-butyl)-6-(trifluoromethyl)pyrimidin-4-yl)piperazin-1-yl)butyl)piperazine-1-carboxamide] |
| 4600 ± 785 nM | – | – | Cc1nc(N2CCN(CCCCNC(=O)c3cn4ccccc4n3)CC2)cc(C(C)(C)C)n1 [Compound 125, N-(4-(4-(6-(tert-Butyl)-2-methylpyrimidin-4-yl)piperazin-1-yl)butyl)imidazo[1,2-a]pyridine-2-carboxamide] |
| 962 nM | 19.2 nM | 50 | CC(C)(C)c1nc(N2CCN(CCCCNC(=O)N3CCN(c4ccccc4)C(=O)C3)CC2)cc(C(F)(F)F)n1 [Compound 102, N-(4-(4-(2-(tert-Butyl)-6-(trifluoromethyl)pyrimidin-4-yl)piperazin-1-yl)butyl)-3-oxo-4-phenylpiperazine-1-carboxamide] |
| 128 ± 25.8 nM | 8.6 ± 1.1 nM | 15 | CCN1CCN(C(=O)NCCCCN2CCN(c3cc(C(F)(F)F)nc(C(C)(C)C)n3)CC2)CC1 [Compound 65, N-(4-(4-(2-(tert-Butyl)-6-(trifluoromethyl)pyrimidin-4-yl)piperazin-1-yl)butyl)-4-ethylpiperazine-1-carboxamide] |
| 2330 ± 785 nM | 285 ± 77 nM | 8 | O=C(NCCCCN1CCN(c2ccnc3ccccc23)CC1)c1nc2ccccn2c1Br [Compound 128, 3-Bromo-N-(4-(4-(quinolin-4-yl)piperazin-1-yl)butyl)imidazo[1,2-a]pyridine-2-carboxamide] |
| 789 ± 192 nM | 70.6 ± 14.8 nM | 11 | Cc1ccccc1N1CCN(C(=O)NCCCCN2CCN(c3cc(C(F)(F)F)nc(C(C)(C)C)n3)CC2)CC1 [Compound 58, N-(4-(4-(2-(tert-Butyl)-6-(trifluoromethyl)pyrimidin-4-yl)piperazin-1-yl)butyl)-4-(o-tolyl)piperazine-1-carboxamide] |
| 1270 ± 291 nM | 27 ± 3.9 nM | 47 | CC(C)(C)c1nc(N2CCN(CCCCNC(=O)N3CCC(O)(c4ccccc4)CC3)CC2)cc(C(F)(F)F)n1 [Compound 49, N-(4-(4-(2-(tert-Butyl)-6-(trifluoromethyl)pyrimidin-4-yl)piperazin-1-yl)butyl)-4-hydroxy-4-phenylpiperidine-1-carboxamide] |
| 308 ± 29.9 nM | 9.5 ± 1.7 nM | 33 | CC(C)(C)c1cc(N2CCN(CCCCNC(=O)N3CCc4[nH]c5ccccc5c4C3)CC2)nc(C(C)(C)C)n1 [Compound 56, N-(4-(4-(2,6-Di-tert-butylpyrimidin-4-yl)piperazin-1-yl)butyl)-3,4-dihydro-1H-pyrido[4,3-b]indole-2(5H)-carboxamide] |
| 281 ± 46.5 nM | 27.4 ± 3.8 nM | 10 | CC(C)(C)c1nc(N2CCN(CCCCNC(=O)N3CCc4ccccc43)CC2)cc(C(F)(F)F)n1 [Compound 71, N-(4-(4-(2-(tert-Butyl)-6-(trifluoromethyl)pyrimidin-4-yl)piperazin-1-yl)butyl)indoline-1-carboxamide] |
| 1340 ± 166 nM | 128 ± 30.3 nM | 10 | Cc1ccc2[nH]c3c(c2c1)CN(C(=O)NCCCCN1CCN(c2cc(C(F)(F)F)nc(C(C)(C)C)n2)CC1)CC3 [Compound 90, N-(4-(4-(2-(tert-Butyl)-6-(trifluoromethyl)pyrimidin-4-yl)piperazin-1-yl)butyl)-8-methyl-3,4-dihydro-1H-pyrido[4,3-b]indole-2(5H)-carboxamide] |
| 802 ± 179 nM | 22.8 ± 4.2 nM | 35 | Cc1ccc(N2CCN(C(=O)NCCCCN3CCN(c4cc(C(F)(F)F)nc(C(C)(C)C)n4)CC3)CC2)cc1 [Compound 23, N-(4-(4-(2-(tert-Butyl)-6-(trifluoromethyl)pyrimidin-4-yl)piperazin-1-yl)butyl)-4-(p-tolyl)piperazine-1-carboxamide] |
| 1350 ± 241 nM | 166 ± 4.1 nM | 8 | COc1ccc2[nH]c3c(c2c1)CN(C(=O)NCCCCN1CCN(c2cc(C(F)(F)F)nc(C(C)(C)C)n2)CC1)CC3 [Compound 92, N-(4-(4-(2-(tert-Butyl)-6-(trifluoromethyl)pyrimidin-4-yl)piperazin-1-yl)butyl)-8-methoxy-3,4-dihydro-1H-pyrido[4,3-b]indole-2(5H)-carboxamide] |
| 10500 ± 2240 nM | 668 ± 122 nM | 16 | Cc1nc(N2CCN(CCCCNC(=O)N3CCn4c(C)nnc4C3)CC2)cc(C(C)(C)C)n1 [Compound 88, N-(4-(4-(6-(tert-Butyl)-2-methylpyrimidin-4-yl)piperazin-1-yl)butyl)-3-methyl-5,6-dihydro-[1,2,4]triazolo[4,3-a]pyrazine-7(8H)-carboxamide] |
| 582 ± 127 nM | 19.3 ± 1.6 nM | 30 | CC(C)(C)c1nc(N2CCN(CCCCNC(=O)N3CCN(c4cccc(Cl)c4)CC3)CC2)cc(C(F)(F)F)n1 [Compound 15, N-(4-(4-(2-(tert-Butyl)-6-(trifluoromethyl)pyrimidin-4-yl)piperazin-1-yl)butyl)-4-(3-chlorophenyl)piperazine-1-carboxamide] |
| 524 ± 42.2 nM | 12.7 ± 2.5 nM | 41 | CC(C)(C)c1nc(N2CCN(CCCCNC(=O)N3CCN(c4ccnc5ccccc45)CC3)CC2)cc(C(F)(F)F)n1 [Compound 34, N-(4-(4-(2-(tert-Butyl)-6-(trifluoromethyl)pyrimidin-4-yl)piperazin-1-yl)butyl)-4-(quinolin-4-yl)piperazine-1-carboxamide] |
| 1020 ± 68.2 nM | 34.5 ± 7.6 nM | 29 | O=C(NCCCCN1CCN(c2ccnc3cc(Cl)ccc23)CC1)C1CCC(c2ccccc2)CC1 (stereo not drawn) [Compound 105, N-(4-(4-(7-Chloroquinolin-4-yl)piperazin-1-yl)butyl)-4-phenylcyclohexanecarboxamide] |
| 2440 ± 175 nM | 245 ± 46.4 nM | 10 | CC(C)(C)c1cc(N2CCN(CCCCNC(=O)N3CCc4[nH]c5ccccc5c4C3)CC2)cc(C(C)(C)C)c1 [Compound 97, N-(4-(4-(3,5-Di-tert-butylphenyl)piperazin-1-yl)butyl)-3,4-dihydro-1H-pyrido[4,3-b]indole-2(5H)-carboxamide] |
| 191 nM | – | – | CC(C)(C)c1nc(C2CC2)cc(N2CCN(CCCCNC(=O)c3cn4ccccc4n3)CC2)n1 [Compound 112, N-(4-(4-(2-(tert-Butyl)-6-cyclopropylpyrimidin-4-yl)piperazin-1-yl)butyl)imidazo[1,2-a]pyridine-2-carboxamide] |
| 366 nM | – | – | Cc1cc(N2CCN(CCCCNC(=O)c3cn4ccccc4n3)CC2)nc(C(C)(C)C)n1 [Compound 111, N-(4-(4-(2-(tert-Butyl)-6-methylpyrimidin-4-yl)piperazin-1-yl)butyl)imidazo[1,2-a]pyridine-2-carboxamide] |
| 13600 ± 6260 nM | – | – | O=C(NCCCCN1CCN(c2cc(C(F)(F)F)nc3ccccc23)CC1)c1cn2ccccc2n1 [Compound 130, N-(4-(4-(2-(Trifluoromethyl)quinolin-4-yl)piperazin-1-yl)butyl)imidazo[1,2-a]pyridine-2-carboxamide] |
| 809 ± 194 nM | – | – | CC(C)(C)c1nc(N2CCN(CCCCNC(=O)C3CCN(c4ccccc4)CC3)CC2)cc(C(F)(F)F)n1 [Compound 108, N-(4-(4-(2-(tert-Butyl)-6-(trifluoromethyl)pyrimidin-4-yl)piperazin-1-yl)butyl)-1-phenylpiperidine-4-carboxamide] |
| 1880 ± 488 nM | – | – | O=C(NCCCCN1CCN(c2ccnc3cc(Cl)ccc23)CC1)c1cn2ccccc2n1 [Compound 118, N-(4-(4-(7-Chloroquinolin-4-yl)piperazin-1-yl)butyl)imidazo[1,2-a]pyridine-2-carboxamide] |
